Experimental data as given in patent publication US20170121315A1, “HETEROBICYCLICALLY SUBSTITUTED 4-OXOBUTANE ACID DERIVATIVES AND USE THEREOF” (priority 2014, published 2017).

Assays:
Assay type in all cases: biochemical
MMP-1 = target: T1, MMP-1 (Homo sapiens, UniProt P03956); assay: In vitro MMP-1 inhibition test; details: human MMP-1
T1 construct: purchased R&D Systems 901-MP
T1 sequence (P03956 100-469): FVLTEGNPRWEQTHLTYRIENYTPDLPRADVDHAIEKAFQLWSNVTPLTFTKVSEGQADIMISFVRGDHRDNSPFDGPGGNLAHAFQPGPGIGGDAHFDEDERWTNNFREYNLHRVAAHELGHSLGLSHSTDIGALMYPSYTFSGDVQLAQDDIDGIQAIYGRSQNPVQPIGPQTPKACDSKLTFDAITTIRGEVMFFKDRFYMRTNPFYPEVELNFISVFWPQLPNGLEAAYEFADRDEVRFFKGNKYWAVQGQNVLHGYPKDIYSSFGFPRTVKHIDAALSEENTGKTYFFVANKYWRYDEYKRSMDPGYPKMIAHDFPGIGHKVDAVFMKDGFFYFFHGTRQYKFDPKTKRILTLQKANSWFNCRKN
Text: (§1) The MMP-mediated amidolytic cleavage of a suitable peptide substrate leads to an increase in fluorescent light here too. The signal intensity of the fluorescent light is directly proportional to the enzyme activity. The active concentration of a test compound at which half the enzyme is inhibited (50% signal intensity of the fluorescent light) is reported as the IC50 value.
(§2) Recombinant MMP-1 (R&D Systems, 901-MP) is chemically activated in accordance with the manufacturer's instructions using APMA. 1 μl of the test compound to be analysed (as a solution in DMSO, suitable concentrations e.g. 1 nM to 30 μM) is pipetted into 24 μl of activated enzyme (final concentration e.g. 2 nM) in reaction buffer (50 mM Tris/HCl pH 7.5, 10 mM CaCl2, 150 mM NaCl, 0.05% Brij®-35) in a white 384-hole microtiter plate (MTP). The enzymatic reaction is started by adding the intramolecularly quenched Mca-Pro-Leu-Gly-Leu-Dpa(Dnp)-Ala-Arg-NH2 substrate (final concentration e.g. 10 μM; R&D Systems, ES-001), so as to result in a total test volume of 50 μl. The course of the MMP-1 reaction is measured by measuring the fluorescence intensity (excitation 320 nm, emission 410 nm) over a suitable period of time (e.g. over 120 min at a temperature of 32° C.).

MMP-3 = target: T2, MMP-3 (Homo sapiens, UniProt P08254); assay: In vitro MMP-3 inhibition test; details: human MMP-3
T2 construct: purchased R&D Systems 513-MP
T2 sequence (P08254 100-477): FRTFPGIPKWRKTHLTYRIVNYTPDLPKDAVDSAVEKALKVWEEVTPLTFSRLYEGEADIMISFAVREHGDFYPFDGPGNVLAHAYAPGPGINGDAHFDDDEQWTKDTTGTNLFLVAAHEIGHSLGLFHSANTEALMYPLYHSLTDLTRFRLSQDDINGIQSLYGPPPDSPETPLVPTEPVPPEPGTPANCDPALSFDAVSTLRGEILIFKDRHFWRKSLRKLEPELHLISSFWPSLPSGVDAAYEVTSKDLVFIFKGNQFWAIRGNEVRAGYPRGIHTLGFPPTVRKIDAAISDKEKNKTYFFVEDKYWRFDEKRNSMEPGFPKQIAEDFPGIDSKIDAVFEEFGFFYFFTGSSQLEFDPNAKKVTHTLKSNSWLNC
Text: as §1
as §2, with “MMP-3” for “MMP-1”, “513-MP)” for “901-MP)”, “Mca-Arg-Pro-Lys-Pro-Val-Glu-Nval-Trp-Arg-Lys(Dnp)-NH2” for “Mca-Pro-Leu-Gly-Leu-Dpa(Dnp)-Ala-Arg-NH2”, “ES-002),” for “ES-001),”

MMP-9 = target: T3, MMP-9 (Homo sapiens, UniProt P14780); assay: In vitro MMP-9 inhibition test; details: human MMP-9
T3 construct: purchased R&D Systems 911-MP
T3 sequence (P14780 107-707 limits assumed): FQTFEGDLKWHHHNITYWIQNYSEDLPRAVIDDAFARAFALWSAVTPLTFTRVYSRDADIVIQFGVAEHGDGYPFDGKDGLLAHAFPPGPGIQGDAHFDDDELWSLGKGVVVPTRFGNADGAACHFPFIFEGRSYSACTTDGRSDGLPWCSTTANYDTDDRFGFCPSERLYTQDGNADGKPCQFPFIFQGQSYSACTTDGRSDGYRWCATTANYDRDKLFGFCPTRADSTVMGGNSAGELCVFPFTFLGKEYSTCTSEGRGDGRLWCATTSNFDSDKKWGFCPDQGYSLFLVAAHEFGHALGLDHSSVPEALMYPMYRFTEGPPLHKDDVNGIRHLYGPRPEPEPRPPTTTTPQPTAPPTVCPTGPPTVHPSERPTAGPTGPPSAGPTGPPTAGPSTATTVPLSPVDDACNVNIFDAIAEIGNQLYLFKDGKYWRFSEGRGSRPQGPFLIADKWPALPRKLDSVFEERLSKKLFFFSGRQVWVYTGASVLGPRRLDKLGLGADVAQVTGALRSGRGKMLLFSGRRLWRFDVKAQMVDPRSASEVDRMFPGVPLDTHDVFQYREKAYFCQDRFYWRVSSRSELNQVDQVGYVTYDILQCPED
Text: as §1
as §2, with “Recombinant MMP-9” for “Recombinant MMP-1”, “Systems, 911-MP)” for “Systems, 901-MP)”, “e.g. 0.1” for “e.g. 2”, “the MMP-9” for “the MMP-1”

MMP-14 = target: T4, MMP-14 (Homo sapiens, UniProt P50281); assay: In vitro MMP-14 inhibition test; details: human MMP-14
T4 construct: purchased R&D Systems 918-MP
Text: as §1
Recombinant MMP-14 (R&D Systems, 918-MP) is enzymatically activated in accordance with the manufacturer's instructions using recombinant furin (R&D Systems, 1503-SE). 1 μl of the test compound to be analysed (as a solution in DMSO, suitable concentrations e.g. 1 nM to 30 μM) is pipetted into 24 μl of activated enzyme (final concentration e.g. 0.5 nM) in reaction buffer (50 mM Tris/HCl pH 7.5, 10 mM CaCl2, 150 mM NaCl, 0.05% Brij®-35) in a white 384-hole microtiter plate (MTP). The enzymatic reaction is started by adding the intramolecularly quenched Mca-Lys-Pro-Leu-Gly-Leu-Dpa(Dnp)-Ala-Arg-NH2 substrate (final concentration e.g. 5 μM; R&D Systems, ES-010), so as to result in a total test volume of 50 μl. The course of the MMP-14 reaction is measured by measuring the fluorescence intensity (excitation 320 nm, emission 410 nm) over a suitable period of time (e.g. over 120 min at a temperature of 32° C.).

Structure (SMILES)	IC50 (MMP-1)	IC50 (MMP-3)	IC50 (MMP-9)	IC50 (MMP-14)
O=C(CC(CCn1nnc2ccccc2c1=O)C(=O)O)c1cc2cc(OCCc3ccc(Cl)cc3)ccc2o1 (racemic) [Example 2, (+/−)-4-{5-[2-(4-Chlorophenyl)ethoxy]-1-benzofur-2-yl}-4-oxo-2-[2-(4-oxo-1,2,3-benzotriazin-3(4H)-yl)ethyl]butanoic acid]	> 40 µM	25 µM	24 µM	> 40 µM
O=C(CC(CCn1nnc2ccccc2c1=O)C(=O)O)c1cc2cc(OCCC3CCOCC3)ccc2o1 (racemic) [Example 6, (+/−)-4-Oxo-2-[2-(4-oxo-1,2,3-benzotriazin-3(4H)-yl)ethyl]-4-{5-[2-(tetrahydro-2H-pyran-4-yl)ethoxy]-1-benzofur-2-yl}butanoic acid]	> 40 µM	26 µM	3.4 µM	37 µM
O=C(CC(CCn1nnc2ccccc2c1=O)C(=O)O)c1cc2cc(OCC3CCCCC3)ccc2o1 (racemic) [Example 8, (+/−)-4-[5-(Cyclohexylmethoxy)-1-benzofur-2-yl]-4-oxo-2-[2-(4-oxo-1,2,3-benzotriazin-3(4H)-yl)ethyl]butanoic acid]	> 40 µM	> 40 µM	13 µM	> 40 µM
Cc1cccc(COc2ccc3oc(C(=O)CC(CCn4nnc5ccccc5c4=O)C(=O)O)cc3c2)c1 (racemic) [Example 51, (+/−)-4-{5-[(3-Methylbenzyl)oxy]-1-benzofur-2-yl}-4-oxo-2-[2-(4-oxo-1,2,3-benzotriazin-3(4H)-yl)ethyl]butanoic acid]	> 40 µM	> 40 µM	30 µM	> 40 µM
CCCOc1ccc2cc(C(=O)CC(CCn3nnc4ccccc4c3=O)C(=O)O)oc2c1 (racemic) [Example 58, (+/−)-4-Oxo-2-[2-(4-oxo-1,2,3-benzotriazin-3(4H)-yl)ethyl]-4-(6-propoxy-1-benzofur-2-yl)butanoic acid]	> 40 µM	> 40 µM	10 µM	2.2 µM
O=C(CC(CCn1nnc2ccccc2c1=O)C(=O)O)c1cc2ccc(OCCc3ccccc3)cc2o1 (racemic) [Example 73, (+/−)-4-Oxo-2-[2-(4-oxo-1,2,3-benzotriazin-3(4H)-yl)ethyl]-4-[6-(2-phenylethoxy)-1-benzofur-2-yl]butanoic acid]	> 40 µM	29 µM	2.2 µM	> 40 µM
O=C(CC(CCn1nnc2ccccc2c1=O)C(=O)O)c1coc2cc(OCCC3CCOCC3)ccc12 (racemic) [Example 74, (+/−)-4-Oxo-2-[2-(4-oxo-1,2,3-benzotriazin-3(4H)-yl)ethyl]-4-{6-[2-(tetrahydro-2H-pyran-4-yl)ethoxy]-1-benzofur-3-yl}butanoic acid]	> 40 µM	16 µM	0.18 µM	1.4 µM

Results, then the compound that gave them:

IC50 (MMP-1)	IC50 (MMP-3)	IC50 (MMP-9)	IC50 (MMP-14)	Structure (SMILES)
> 40 µM	> 40 µM	> 40 µM	> 40 µM	O=C(CC(CCn1nnc2ccccc2c1=O)C(=O)O)c1cc2cc(OCCc3ccccc3Cl)ccc2o1 (racemic) [Example 1, (+/−)-4-{5-[2-(2-Chlorophenyl)ethoxy]-1-benzofur-2-yl}-4-oxo-2-[2-(4-oxo-1,2,3-benzotriazin-3(4H)-yl)ethyl]butanoic acid]
> 40 µM	> 40 µM	9.1 µM	34 µM	O=C(CC(CCn1nnc2ccccc2c1=O)C(=O)O)c1cc2cc(OCC3CCOCC3)ccc2o1 (racemic) [Example 5, (+/−)-4-Oxo-2-[2-(4-oxo-1,2,3-benzotriazin-3(4H)-yl)ethyl]-4-[5-(tetrahydro-2H-pyran-4-ylmethoxy)-1-benzofur-2-yl]butanoic acid]
> 40 µM	27 µM	5 µM	> 40 µM	O=C(CC(CCn1nnc2ccccc2c1=O)C(=O)O)c1cc2cc(OCCC3CCCC3)ccc2o1 (racemic) [Example 7, (+/−)-4-[5-(2-Cyclopentylethoxy)-1-benzofur-2-yl]-4-oxo-2-[2-(4-oxo-1,2,3-benzotriazin-3(4H)-yl)ethyl]butanoic acid]
> 40 µM	> 40 µM	9.7 µM	> 40 µM	CCCCCCCOc1ccc2oc(C(=O)CC(CCn3nnc4ccccc4c3=O)C(=O)O)cc2c1 (racemic) [Example 31, (+/−)-4-[5-(Heptyloxy)-1-benzofur-2-yl]-4-oxo-2-[2-(4-oxo-1,2,3-benzotriazin-3(4H)-yl)ethyl]butanoic acid]
> 40 µM	39 µM	17 µM	> 40 µM	O=C(CC(CCn1nnc2ccccc2c1=O)C(=O)O)c1cc2cc(OCCCc3ccccc3)ccc2o1 (racemic) [Example 37, (+/−)-4-Oxo-2-[2-(4-oxo-1,2,3-benzotriazin-3(4H)-yl)ethyl]-4-[5-(3-phenylpropoxy)-1-benzofur-2-yl]butanoic acid]
> 40 µM	23 µM	9.9 µM	13 µM	O=C(CC(CCn1nnc2ccccc2c1=O)C(=O)O)c1cc2cc(OCc3ccc(C(F)(F)F)cc3)ccc2o1 (racemic) [Example 44, (+/−)-4-Oxo-2-[2-(4-oxo-1,2,3-benzotriazin-3(4H)-yl)ethyl]-4-(5-{[4-(trifluoromethyl)benzyl]oxy}-1-benzofur-2-yl)butanoic acid]
> 40 µM	34 µM	26 µM	> 40 µM	O=C(CC(CCn1nnc2ccccc2c1=O)C(=O)O)c1cc2cc(OCc3cccc(Cl)c3)ccc2o1 (racemic) [Example 50, (+/−)-4-{5-[(3-Chlorobenzyl)oxy]-1-benzofur-2-yl}-4-oxo-2-[2-(4-oxo-1,2,3-benzotriazin-3(4H)-yl)ethyl]butanoic acid]
> 40 µM	> 40 µM	> 40 µM	> 40 µM	O=C(CC(CCn1nnc2ccccc2c1=O)C(=O)O)c1cc2ccc(OCCCC3CCCCC3)cc2o1 (racemic) [Example 71, (+/−)-4-[6-(3-Cyclohexylpropoxy)-1-benzofur-2-yl]-4-oxo-2-[2-(4-oxo-1,2,3-benzotriazin-3(4H)-yl)ethyl]butanoic acid]
